Read-outs that look alike come from different tables or passages of the source.
Columns and labels:
[1] = Bioavailability and pharmacokinetic profile following intravenous and oral administration; type: in vivo, Male Sprague Dawley Rats; details: for MRT inf: read-out: MRT(0-∞); for Vd: read-out: Vz
Protocol: (§1) Method: For IV infusion over 10 minutes the compound of Example 3.4 was dissolved in 20% DMSO, 30% PEG400 and 50% Water. For oral (PO) dosing AVX62738 was dissolved in 0.5% benzyl alcohol and 0.4% Tween 80 and 99.1% 0.5% hydroxypropylmethylcellulose. Compounds were dosed IV and then after a one week washout, orally in the same rats. (Body weight: Rat 1: 254.7 g; Rat 2: 253.4 g). Ex-vivo plasma samples were assayed for AVX62738 using an LC-ms method of Lower limit of quantitation. (LLOQ)=2.5 ng/mL.

HIV-1 = experiment: Luciferase Assay with single-round reporter virus (NLXLuc or HIV-Luc); type: cell-based; details: Human immunodeficiency virus 1
Excerpt: Infectivity assays using reporter viruses derived from lentiviral vectors capable of a single round of infection were used to determine the activity (EC50) of compounds. The DNA used to generate viruses for infection was the full-length HIV-1 genome which had been envelope-deleted. In addition, a reporter gene (the firefly luciferase gene from Photinus pyralis) was cloned into the nefregion of the HIV backbone for ease of assay readout. […]. Culture supernatants containing VSV-G pseudotyped virions were harvested 64 h post transfection, clarified by centrifugation to remove cell debris, and frozen at −70° C. until use.
293FT cells were plated out at 12000 cells per well in CellView 96-well cell culture plates (Invitrogen) 16 h prior to compound addition. Compounds were preincubated with cells for 4 h at 37° C. prior to the addition of virus sufficient to generate approximately 10000 Luciferase light units (as measured by the Victor Wallace luminometer) upon assaying using the Bright-Glo™ reagent (Promega) according to the manufacturer's instructions at 48 h post infection.
In the tables below, this assay is referred to as NLXLuc or HIV-Luc.

[2] = Clinical Observation following intravenous and oral administration; type: in vivo, Male Sprague Dawley Rats
Protocol: as §1

[3] = male, Sprague Dawley, rat, plasma, iv, 5 mg/kg, IV 5 mg/kg, Mean
[4] = male, Sprague Dawley, rat, plasma, iv, 5 mg/kg, IV 5 mg/kg, Rat 1
[5] = male, Sprague Dawley, rat, plasma, iv, 5 mg/kg, IV 5 mg/kg, Rat 2
[6] = male, Sprague Dawley, rat, plasma, iv, 5 mg/kg, IV (5 mg/kg), Mean
[7] = male, Sprague Dawley, rat, plasma, iv, 5 mg/kg, IV (5 mg/kg), animal 701
[8] = male, Sprague Dawley, rat, plasma, po, 10 mg/kg, PO 10 mg/kg, Mean
[9] = male, Sprague Dawley, rat, plasma, po, 10 mg/kg, PO 10 mg/kg, Rat 1
[10] = male, Sprague Dawley, rat, plasma, po, 10 mg/kg, PO 10 mg/kg, Rat 2
[11] = male, Sprague Dawley, rat, plasma, po, 10 mg/kg, PO (10 mg/kg), Mean
[12] = male, Sprague Dawley, rat, plasma, po, 10 mg/kg, PO (10 mg/kg), animal 801
[13] = male, Sprague Dawley, rat, plasma, po, 10 mg/kg, PO (10 mg/kg), animal 802
[14] = male, Sprague-Dawley, rat, plasma, iv, 5 mg/kg, IV (5 mg/kg), animal 701
[15] = male, Sprague-Dawley, rat, plasma, iv, 5 mg/kg, IV (5 mg/kg), animal 702

For `CN1CCN(c2cc(N3CCN(C)S3(=O)=O)c3nc(C(=O)NCc4ccc(F)cc4)c(O)c(=O)n3c2)CC1` [Example 3.4, 3-Hydroxy-9-(5-methyl-1,1-dioxo-1,6-[1,2,5]thiadiazolidin-2-yl)-7-(4-methyl-piperazin-1-yl)-4-oxo-4H-pyrido[1,2-a]pyrimidine-2-carboxylic acid 4-fluoro-benzylamide], the “Plasma Concentration” value ([1]; IV 5 mg/kg, Rat 1, 24 hr) was “BLQ (BLQ: Below limit of quantitation)”, the “Plasma Concentration” value ([1]; IV 5 mg/kg, Rat 1, Pre-dose) was “BLQ (BLQ: Below limit of quantitation)” and the “Plasma Concentration” value ([1]; IV 5 mg/kg, Rat 2, 24 hr) was “BLQ (BLQ: Below limit of quantitation)”. For the same compound, the “Plasma Concentration” value ([1]; IV 5 mg/kg, Rat 2, Pre-dose) was “BLQ (BLQ: Below limit of quantitation)”, the CLz ([1]; IV (5 mg/kg), Mean) was 44.8 mL/min/kg and the t1/2z ([1]; IV (5 mg/kg), Mean) was 80.4 min. It also gave a CLz ([1]; IV (5 mg/kg), animal 701) of 44.8 mL/min/kg, a t1/2z ([1]; IV (5 mg/kg), animal 701) of 83.4 min and a CLz ([1]; IV (5 mg/kg), animal 702) of 44.8 mL/min/kg. The t1/2z ([1]; IV (5 mg/kg), animal 702) was 77.4 min, the “Plasma Concentration” value ([1]; PO 10 mg/kg, Rat 1, Pre-dose) was “BLQ (BLQ: Below limit of quantitation)” and the “Plasma Concentration” value ([1]; PO 10 mg/kg, Rat 2, 6 hr) was “BLQ (BLQ: Below limit of quantitation)”. The “Plasma Concentration” value ([1]; PO 10 mg/kg, Rat 2, 8 hr) was “BLQ (BLQ: Below limit of quantitation)”, the “Plasma Concentration” value ([1]; PO 10 mg/kg, Rat 2, 24 hr) was “BLQ (BLQ: Below limit of quantitation)” and the “Plasma Concentration” value ([1]; PO 10 mg/kg, Rat 2, Pre-dose) was “BLQ (BLQ: Below limit of quantitation)”. For the same compound, the F ([1]; PO (10 mg/kg), Mean) was 2.95%, the t1/2z ([1]; PO (10 mg/kg), Mean) was 74.4 min and the F ([1]; PO (10 mg/kg), animal 801) was 2.39%. It also gave a t1/2z ([1]; PO (10 mg/kg), animal 801) of 99 min, an F ([1]; PO (10 mg/kg), animal 802) of 3.50% and a t1/2z ([1]; PO (10 mg/kg), animal 802) of 49.8 min. For the same compound, the concentration at 0.083 hr [1, 3] was 3030 ng/mL, the concentration at 0.25 hr [1, 3] was 2060 ng/mL and the concentration at 0.5 hr [1, 3] was 1140 ng/mL. It also gave a concentration at 1 hr [1, 3] of 527 ng/mL, a concentration at 2 hr [1, 3] of 113 ng/mL and a concentration at 4 hr [1, 3] of 19 ng/mL. It also gave a concentration at 6 hr ([1]; male, Sprague Dawley, rat, plasma, iv, 5 mg/kg, IV 5 mg/kg, Mean, 6 hr) of 6.21 ng/mL, a concentration at 8 h ([1]; male, Sprague Dawley, rat, plasma, iv, 5 mg/kg, IV 5 mg/kg, Mean, 8 hr) of 2.41 ng/mL and a concentration at 0.083 hr [1, 4] of 2710 ng/mL. It also gave a concentration at 0.25 hr [1, 4] of 1990 ng/mL, a concentration at 0.5 hr [1, 4] of 1210 ng/mL and a concentration at 1 hr [1, 4] of 548 ng/mL. The concentration at 2 hr [1, 4] was 123 ng/mL, the concentration at 4 hr [1, 4] was 19.3 ng/mL and the concentration at 6 hr ([1]; male, Sprague Dawley, rat, plasma, iv, 5 mg/kg, IV 5 mg/kg, Rat 1, 6 hr) was 5.44 ng/mL. For the same compound, the concentration at 8 h ([1]; male, Sprague Dawley, rat, plasma, iv, 5 mg/kg, IV 5 mg/kg, Rat 1, 8 hr) was 2.64 ng/mL, the concentration at 0.083 hr [1, 5] was 3350 ng/mL and the concentration at 0.25 hr [1, 5] was 2130 ng/mL. It also gave a concentration at 0.5 hr [1, 5] of 1060 ng/mL, a concentration at 1 hr [1, 5] of 506 ng/mL and a concentration at 2 hr [1, 5] of 104 ng/mL. For the same compound, the concentration at 4 hr [1, 5] was 18.7 ng/mL, the concentration at 6 hr ([1]; male, Sprague Dawley, rat, plasma, iv, 5 mg/kg, IV 5 mg/kg, Rat 2, 6 hr) was 6.97 ng/mL and the concentration at 8 h ([1]; male, Sprague Dawley, rat, plasma, iv, 5 mg/kg, IV 5 mg/kg, Rat 2, 8 hr) was 2.19 ng/mL. For the same compound, the AUC(0-inf) [1, 6] was 1860 ng·h/mL, the AUC(0-t) [1, 6] was 1850 ng·h/mL and the Cmax [1, 6] was 3030 ng/mL. It also gave a Tmax [1, 6] of 4.8 min, an MRT inf [1, 6] of 39.6 min and a Vd [1, 6] of 5.21 L/kg. For the same compound, the AUC(0-inf) [1, 7] was 1860 ng·h/mL, the AUC(0-t) [1, 7] was 1860 ng·h/mL and the Tmax [1, 7] was 4.8 min. For the same compound, the MRT inf [1, 7] was 40.8 min, the concentration at 0.083 hr [1, 8] was 35.2 ng/mL and the concentration at 0.25 hr [1, 8] was 72.2 ng/mL. It also gave a concentration at 0.5 hr [1, 8] of 63.6 ng/mL, a concentration at 1 hr [1, 8] of 39.5 ng/mL and a concentration at 2 hr [1, 8] of 14.1 ng/mL. It also gave a concentration at 4 hr [1, 8] of 5.29 ng/mL, a concentration at 6 h ([1]; male, Sprague Dawley, rat, plasma, po, 10 mg/kg, PO 10 mg/kg, Mean, 6 hr) of 1.31 ng/mL and a concentration at 0.083 hr [1, 9] of 42.4 ng/mL. The concentration at 0.25 hr [1, 9] was 66.2 ng/mL, the concentration at 0.5 hr [1, 9] was 35.7 ng/mL and the concentration at 1 hr [1, 9] was 20.9 ng/mL. For the same compound, the concentration at 2 hr [1, 9] was 13.8 ng/mL, the concentration at 4 hr [1, 9] was 5.62 ng/mL and the concentration at 6 hr ([1]; male, Sprague Dawley, rat, plasma, po, 10 mg/kg, PO 10 mg/kg, Rat 1, 6 hr) was 2.62 ng/mL. For the same compound, the concentration at 8 h ([1]; male, Sprague Dawley, rat, plasma, po, 10 mg/kg, PO 10 mg/kg, Rat 1, 8 hr, not kept for calculation) was 148 ng/mL, the concentration at 24 h ([1]; male, Sprague Dawley, rat, plasma, po, 10 mg/kg, PO 10 mg/kg, Rat 1, 24 hr, not kept for calculation) was 4.66 ng/mL and the concentration at 0.083 hr [1, 10] was 28.1 ng/mL. For the same compound, the concentration at 0.25 hr [1, 10] was 78.1 ng/mL, the concentration at 0.5 hr [1, 10] was 91.6 ng/mL and the concentration at 1 hr [1, 10] was 58.1 ng/mL. The concentration at 2 hr [1, 10] was 14.3 ng/mL, the concentration at 4 hr [1, 10] was 4.96 ng/mL and the AUC(0-inf) [1, 11] was 110 ng·h/mL. The AUC(0-t) [1, 11] was 103 ng·h/mL, the Cmax [1, 11] was 78.9 ng/mL and the Tmax [1, 11] was 22.8 min. For the same compound, the MRT inf [1, 11] was 97.8 min, the AUC(0-inf) [1, 12] was 89 ng·h/mL and the AUC(0-t) [1, 12] was 82.8 ng·h/mL. It also gave a Cmax [1, 12] of 66.2 ng/mL, a Tmax [1, 12] of 15 min and an MRT inf [1, 12] of 122 min. The AUC(0-inf) [1, 13] was 130 ng·h/mL, the AUC(0-t) [1, 13] was 124 ng·h/mL and the Cmax [1, 13] was 91.6 ng/mL. The Tmax [1, 13] was 30 min, the MRT inf [1, 13] was 73.2 min and the Cmax [1, 14] was 2710 ng/mL. The Vd [1, 14] was 5.39 L/kg, the AUC(0-inf) [1, 15] was 1860 ng·h/mL and the AUC(0-t) [1, 15] was 1850 ng·h/mL. It also gave a Cmax [1, 15] of 3350 ng/mL, a Tmax [1, 15] of 4.8 min and an MRT inf [1, 15] of 37.8 min. For the same compound, the Vd [1, 15] was 5.02 L/kg, the EC50 (HIV-1) was 1 to 10 nM and the “Clinical Observation” value ([2]; following intravenous administration (5 mg/kg)) was “Following intravenous administration, no obvious abnormalities were”. The “Clinical Observation” value ([2]; following oral administration (10 mg/kg)) was “Following oral administration, no obvious abnormalities were observed”.

— patent US20130178469A1, “NOVEL ANTIVIRAL AGENTS” (SHANGHAI INSTITUTE OF ORGANIC CHEMISTRY (SIOC), priority 2010, published 2013)
